The text below walks through data of US10759785B2, “Compounds” (ENTERPRISE THERAPEUTICS LIMITED, priority 2016, dated 2020).

Broadly, the half-life is the time in which the quantity being followed falls by half. What is called IC50 is the concentration at which inhibition is half-maximal.

Each structure is given as a SMILES string.

Series [1] concerns the target T1, ENaC (Homo sapiens, UniProt P37088+P51168+P51170).
T1 construct: Human bronchial epithelial cells (HBECs) (Lonza, UK) were cultured; host or cells: primary human bronchial epithelial cells (HBECs) differentiated at an air-liquid interface
T1 sequence (P37088 1-669): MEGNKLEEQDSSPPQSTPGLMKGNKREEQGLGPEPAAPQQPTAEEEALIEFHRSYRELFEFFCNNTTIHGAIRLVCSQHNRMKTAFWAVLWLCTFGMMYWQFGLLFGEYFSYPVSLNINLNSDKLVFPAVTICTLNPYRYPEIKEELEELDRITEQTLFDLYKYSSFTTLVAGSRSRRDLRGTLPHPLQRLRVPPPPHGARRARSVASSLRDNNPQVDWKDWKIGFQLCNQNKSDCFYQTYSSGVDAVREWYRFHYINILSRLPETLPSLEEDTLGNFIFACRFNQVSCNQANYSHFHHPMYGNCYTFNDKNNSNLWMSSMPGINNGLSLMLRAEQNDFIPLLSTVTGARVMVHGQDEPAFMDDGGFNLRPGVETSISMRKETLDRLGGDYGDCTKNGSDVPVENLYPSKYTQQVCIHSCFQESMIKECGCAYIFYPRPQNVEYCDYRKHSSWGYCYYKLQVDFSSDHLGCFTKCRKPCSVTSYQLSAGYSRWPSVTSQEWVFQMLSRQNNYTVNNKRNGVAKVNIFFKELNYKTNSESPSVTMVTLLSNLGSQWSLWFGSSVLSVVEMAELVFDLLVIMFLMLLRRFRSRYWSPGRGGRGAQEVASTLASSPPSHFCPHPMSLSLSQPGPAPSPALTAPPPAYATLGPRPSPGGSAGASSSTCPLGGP
T1 sequence (P51168 1-640): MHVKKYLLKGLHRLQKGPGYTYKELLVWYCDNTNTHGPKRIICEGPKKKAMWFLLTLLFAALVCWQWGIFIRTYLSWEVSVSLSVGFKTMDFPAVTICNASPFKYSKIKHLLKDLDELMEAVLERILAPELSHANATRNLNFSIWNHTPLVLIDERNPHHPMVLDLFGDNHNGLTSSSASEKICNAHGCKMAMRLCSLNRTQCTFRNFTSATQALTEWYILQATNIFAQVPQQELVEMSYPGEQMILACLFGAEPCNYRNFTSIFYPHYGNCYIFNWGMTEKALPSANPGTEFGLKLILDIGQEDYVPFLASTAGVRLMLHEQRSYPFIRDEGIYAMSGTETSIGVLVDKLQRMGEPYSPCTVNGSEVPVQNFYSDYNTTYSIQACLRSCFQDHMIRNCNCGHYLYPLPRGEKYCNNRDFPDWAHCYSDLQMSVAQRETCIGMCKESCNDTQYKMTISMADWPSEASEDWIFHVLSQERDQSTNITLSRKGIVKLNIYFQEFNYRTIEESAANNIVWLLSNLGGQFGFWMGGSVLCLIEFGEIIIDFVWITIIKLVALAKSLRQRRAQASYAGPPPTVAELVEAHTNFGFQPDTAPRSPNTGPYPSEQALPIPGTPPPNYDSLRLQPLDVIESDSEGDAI
T1 sequence (P51170 1-649): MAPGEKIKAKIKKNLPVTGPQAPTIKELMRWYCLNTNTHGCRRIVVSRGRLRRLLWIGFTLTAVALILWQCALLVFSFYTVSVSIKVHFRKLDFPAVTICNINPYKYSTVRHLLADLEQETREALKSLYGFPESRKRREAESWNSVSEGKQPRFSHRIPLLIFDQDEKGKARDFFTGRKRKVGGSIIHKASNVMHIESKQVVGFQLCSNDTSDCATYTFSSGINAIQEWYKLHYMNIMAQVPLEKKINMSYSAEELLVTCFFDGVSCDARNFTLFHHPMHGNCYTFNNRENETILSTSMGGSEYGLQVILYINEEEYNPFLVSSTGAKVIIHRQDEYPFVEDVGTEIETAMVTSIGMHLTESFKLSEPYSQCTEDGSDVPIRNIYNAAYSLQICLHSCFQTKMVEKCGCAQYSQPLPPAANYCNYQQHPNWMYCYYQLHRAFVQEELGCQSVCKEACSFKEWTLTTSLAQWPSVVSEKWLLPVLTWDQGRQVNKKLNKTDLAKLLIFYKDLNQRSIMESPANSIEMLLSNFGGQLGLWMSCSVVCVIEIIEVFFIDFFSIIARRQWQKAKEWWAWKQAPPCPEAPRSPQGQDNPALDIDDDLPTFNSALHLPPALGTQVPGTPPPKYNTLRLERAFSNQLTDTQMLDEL
To be noted: cited from earlier work.

Series [2] in a line: Microsomal stability (rat microsomes). The class given is in vitro ADME. To be noted: pH 7.4, 1 μM test compound, 0.5 mg/mL protein, 1 mM NADPH, 37° C., read-out: Averages. Mic Half Life Rat. How it is done:
(§1) Example 28—Microsomal Stability
(§2) Microsomes (rat and human) were obtained from Bioreclamation. Test compound stock solutions in DMSO (10 mM) were diluted with DMSO to 2 mM. Further dilution was completed to achieve a 100 μM stock (final concentrations; 91.5% Acetonitrile: 8.5% DMSO). Final test compound concentration in incubation was 1 μM (<0.1% DMSO). The following probe substrates were used: verapamil, propranolol, metoprolol and phenacetin (rat) at a final incubation concentration of 1 μM. Assay buffer—Solution 1: 17.4 g potassium phosphate dibasic anhydrous (K2HPO4, 0.1 M) dissolved in 1 L deionised water. Solution 2: 13.6 g potassium phosphate monobasic anhydrous (KH2PO4, 0.1 M) dissolved in 1 L deionised water. Potassium phosphate solutions 1 and 2 were combined to form a pH 7.42 solution at 37° C. pH 7.4 with 2 mM magnesium chloride. NADPH (10 mM)—diluted in deionised water. Frozen microsomes were thawed at 37° C. Microsomes were diluted in assay buffer to achieve a final protein concentration of 0.5 mg/mL and 1 mM NADPH. The following procedure was completed on a Perkin Elmer Janus robotic platform in 96 well format: The microsomal incubation plate was transferred to a heater shaker at 300 rpm and solution heated to 37° C. for 10 min pre-warm. A no co-factor control at 0 and 45 min and one replicates of each test compound was included in every assay. Microsomes were incubated at 37° C., on a shaker set at 300 rpm throughout the assay. At each timepoint (0, 5, 15, 30, 45 min) 50 μL of sample was removed from the 96-well and added to 200 μL of quench solution (acetonitrile containing 0.1% formic acid and imipramine/labetalol, 200 nM). Samples were diluted 1:1 with water using the Janus Robot and analysed by LC-MS/MS.

Series [3] is described as follows: Microsomal stability (human microsomes). The format is in vitro ADME. To be noted: pH 7.4, 1 μM test compound, 0.5 mg/mL protein, 1 mM NADPH, 37° C., read-out: Averages. Mic Half Life Human. How it is done: as §1, §2
The nature of series [4]: Hepatic stability (rat cryopreserved hepatocytes). To be noted: pH 7.4, 1 μM test compound, 1×10^6 cells/mL, 37° C., read-out: Averages. Hep Half Life Rat. The format is in vitro ADME. How it is done: (§3) Example 29—Hepatic Stability
(§4) Cryopreserved hepatocytes (rat and human) were obtained from Bioreclamation. Test compound stock solutions in DMSO (10 mM) were diluted with DMSO to 4 mM. Further dilution was completed to achieve a 100 μM stock (5 μL of 4 mM in 195 μL of 50:50 DMSO:hepatocyte buffer). Final test compound concentration in incubation was 1 μM. The following probe substrates were used: testosterone and carbamazepine at a final incubation concentration of 1 μM. Hepatocyte buffer was prepared (Williams E media containing phenol red and Glutamax™, 15 mM HEPES, warmed to 37° C., pH7.4 with NaOH). Cells were removed from liquid nitrogen, thawed in a waterbath, decanted into 50 mL of pre-warmed Cryopreserved Hepatocyte Recovery Media (LifeTechnologies) and centrifuged. Supernatant fraction was removed, cells were re-suspended in hepatocyte buffer and counted by trypan blue exclusion. Cell viability of >80% was required for all assays. Cells were re-suspended to 1×10^6/mL and 198 μL cell suspension added to each 96-well. 2 μL of 100 μM compound stock solution was added to relevant wells to initiate the incubation. A no cell control and two replicates of each test compound was included in every assay. Cells were incubated at 37° C., on a shaker set at 300 rpm. At each timepoint (0, 15, 30, 45, 60, 90 min) 20 μL of sample was removed from the 96-well and added to 80 μL of quench solution (acetonitrile containing 0.1% formic acid and imipramine/labetalol, 200 nM). Samples were diluted 1:1 with water using the Janus Robot and analysed by LC-MS/MS.

Series [5] can be described thus: Hepatic stability (human cryopreserved hepatocytes). The format is in vitro ADME. The settings on record: cryopreserved hepatocytes, pH 7.4, 1 μM test compound, 1×10^6 cells/mL, 37° C., read-out: Averages. Hep Half Life Human. As to the method: as §3, §4
Series [6] addresses T1, ENaC. The series is described as follows: Short circuit current assay to determine ENaC blocker potency in human bronchial epithelial cells. The class given is cell-based. The settings on record: 50% inhibition of total amiloride-sensitive ISC, HBECs, apical addition; read-out: Averages. ENaC Ic50 μm Avg. As to the method: Example 27—Short Circuit Current Assay to Determine ENaC Blocker Potency in Human Bronchial Epithelial Cells
Human bronchial epithelial cells (HBECs) (Lonza, UK) were cultured using a modification of the method described by Coote et al, (2008). Cells were seeded into plastic T-75 flasks and grown in Bronchial Epithelial Cell Growth Medium (BEGM) (Lonza, UK) supplemented with bovine pituitary extract (52 ng/mL), hydrocortisone (0.5 μg/mL), human recombinant Epidermal Growth Factor (0.5 ng/mL), epinephrine (0.5 ng/mL), transferrin (10 ng/mL), insulin (5 ng/mL), retinoic acid (0.1 ng/mL), triiodothyronine (6.5 ng/mL), gentamycin (50 μg/mL) and amphotericin-B (50 ng/mL). Medium was changed every 48 hours until cells were 90% confluent. Cells were then passaged and seeded (8.25×10^5 cells/insert) onto polycarbonate Snapwell™ inserts (Costar, UK) in differentiation media containing 50% DMEM in BGEM with the same supplements as above but without triiodothyronine and a final retinoic acid concentration of 50 nM (all-trans retinoic acid; Sigma-Aldrich, UK). Cells were maintained submerged for the first 7 days in culture after which time they were exposed to an apical air interface for the remainder of the culture period. From the first day of establishment of an ALI, HBEC were fed with a DMEM:HAMS F-12 (1:1) media containing 2% Ultroser G (Pall BioSepra, France) with gentamycin (50 μg/mL) and amphotericin B (50 ng/mL). Cells were used for short-circuit current assay between days 14-21 after the establishment of the ALI. At all stages of culture, cells were maintained at 37′C in 5% CO2 in an air incubator.
Short-Circuit Current (ISC) Measurements
Snapwell inserts were mounted in Costar Vertical Diffusion Chambers (Costar, UK) and were bathed with continuously gassed Ringer solution (5% CO2 in O2; pH 7.4) maintained at 37° C. containing (in mM): 120 NaCl, 25 NaHCO3, 3.3 KH2PO4, 0.8 K2HPO4, 1.2 CaCl2, 1.2 MgCl2 and 10 glucose. The solution osmolarity was always between 280-300 mOsm/kg H2O for all physiological salt solutions used. Cells were voltage clamped to 0 mV (model EVC4000, WPI). Transepithelial resistance (RT) was measured by applying a 2 mV pulse at 30 s intervals and calculating RT by Ohm's law. Data were recorded using a PowerLab workstation (ADInstruments, UK).
ENaC blocker compounds were added to the apical chamber from a 1000-fold stock solution (prepared in DMSO) to achieve a cumulative concentration response in terms of the inhibition of the basal ISC. At the completion of the concentration response, a supra-maximal concentration of amiloride (10 μM) was added. The concentration of test compound that induced a 50% inhibition of the total amiloride-sensitive ISC (IC50) was calculated using GraphPad Prism v6.05.

Regarding `N=C(N)NC(=O)c1nc(Cl)c(N)nc1N` [Amiloride], on ENaC [1] (healthy controls and patients with CF), the “Effect on MCC” value was “increase MCC”. Further, the “Effect on clinical endpoints” value on ENaC [1] (inhaled amiloride) was “lack of a robust effect”.

For the compound `CCn1c(CNC(=O)c2nc(Br)cnc2N)[n+](C)c2ccc(OC)cc21.[I-]` [Example 1, 2-{[(3-amino-6-bromopyrazin-2-yl)formamido]methyl}-1-ethyl-6-methoxy-3-methyl-1H-1,3-benzodiazol-3-ium iodide], the half-life at 1 μM worked out at 3 min in series [2], 12 min in series [3], 6 min in series [4] and 44 min in series [5].

With `CCn1c(CNC(=O)c2nc(Br)cnc2N)[n+](CC)c2ccc(C(=O)O)cc21` [Example 16, 2-{[(3-amino-6-bromopyrazin-2-yl)formamido]methyl}-6-carboxy-1,3-diethyl-1H-1,3-benzodiazol-3-ium bromide], the concentration for half-maximal inhibition (IC50) at ENaC [6] amounted to 14 nM.
